Key:
BSA [1] = target: T1, BSA (Bos taurus, UniProt P02769); assay: Fluorescence quenching of BSA (Stern-Volmer, binding constants, van't Hoff thermodynamics); parameters: species or system bovine; settings: for number of binding sites n per BSA / Ksv (Stern-Volmer dynamic quenching constant) / ΔH of binding to BSA / ΔS of binding to BSA / ΔG of binding to BSA: pH 7.2; for Kq (quenching rate constant of biomolecule): calculated from Ksv with τ0 = 10^−8 s; for shift of BSA fluorescence emission upon addition of the agent: fluorescence titration, CBSA = 1.0 × 10^−5 M, pH 7.2, 288 K; for ΔH of binding to BSA / ΔS of binding to BSA: van't Hoff plot; for ΔG of binding to BSA: ΔG = ΔH − TΔS
T1 sequence (P02769 25-607): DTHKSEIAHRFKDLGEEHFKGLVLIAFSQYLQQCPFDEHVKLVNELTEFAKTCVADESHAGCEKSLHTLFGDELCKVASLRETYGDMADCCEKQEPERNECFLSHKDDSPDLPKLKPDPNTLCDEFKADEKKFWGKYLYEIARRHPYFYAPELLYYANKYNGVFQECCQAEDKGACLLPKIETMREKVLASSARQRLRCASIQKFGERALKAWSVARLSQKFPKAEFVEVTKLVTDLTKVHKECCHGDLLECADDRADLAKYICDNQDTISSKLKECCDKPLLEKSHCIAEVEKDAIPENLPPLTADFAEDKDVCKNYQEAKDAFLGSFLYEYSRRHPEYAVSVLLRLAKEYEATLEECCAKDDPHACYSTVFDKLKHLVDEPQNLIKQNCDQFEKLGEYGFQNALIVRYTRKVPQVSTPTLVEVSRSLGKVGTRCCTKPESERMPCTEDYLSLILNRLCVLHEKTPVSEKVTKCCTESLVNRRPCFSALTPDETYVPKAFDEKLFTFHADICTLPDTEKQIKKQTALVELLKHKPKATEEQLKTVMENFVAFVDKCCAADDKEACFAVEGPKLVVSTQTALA
Method: To investigate the possible mechanism responsible for fluorescence quenching, Stern–Volmer plots were used to interpret the spectral data. The procedure of fluorescence quenching was first assumed a dynamic quenching process. The dynamic quenching constant Ksv and the apparent biomolecular quenching rate constant Kq were calculated using the Stern–Volmer equation: (1) F0/F=1+Ksv[Q]=1+Kqτ0[Q] where, F0 and F are the steady-state fluorescence intensities in the absence and presence of a quencher, respectively; [Q] is the concentration of the quencher; Ksv is the Stern–Volmer dynamic quenching rate constant; τ0 is the fluorescence lifetime of the protein without the quencher, the average life of a fluorescence molecule is 10^−8 s; and Kq is the quenching rate constant of biomolecule. […] To distinguish the quenching model, additional experiments were conducted at different temperatures, as dynamic and static quenching have different temperature dependencies. With an increase in temperature, the Ksv values decrease for static quenching, and increase for dynamic quenching. […] Kq values calculated for DPPCAH and DPPCAH-Cu ranged from 5 × 10^12~7 × 10^12, and >2 × 10^10 L·mol^−1·s^−1, respectively, which further supported the static quenching model.
For the static quenching model, important binding parameters including association constant (Ka) and number of binding sites (n) were calculated from the plots using the equation: (2) log(F0−F/F0)=log Ka+nlog[Q] where, Ka is the binding constant, and n is the number of binding sites per BSA. Ka and n were obtained from the intercept and slope of the curve. […] The number of binding sites n was 1.0418 for DPPCAH and 1.1053 for DPPCAH-Cu, or approximately 1. Thus, the association of one molecule of quencher with one molecule of protein was confirmed. […] Similar results were reported from studies analyzing interaction of eupatorin with BSA [17].
The interaction of small molecules with biomacromolecule involves hydrogen bonds, electrostatic interactions, van der Waals, and hydrophobic forces. In the present study, the nature of the interaction involved in binding was determined based on thermodynamic parameters, namely, ΔH > 0 and ΔS > 0 would imply a hydrophobic interaction, ΔH < 0 and ΔS < 0 hint imply hydrogen bonding and van der Waals interactions, and ΔH< 0 and ΔS > 0 imply electrostatic force interactions. The thermodynamic parameters were obtained using the van’t Hoff Equation (3): (3) lnK=−ΔH/RT+ΔS/R where, K is the binding constant; T is the absolute temperature; and R is the universal gas constant. ΔH and ΔS were obtained from the slope and intercept of the linear van’t Hoff plot (shown in Figure 5). The free energy change (ΔG) was estimated using the following formula: ΔG = ΔH − TΔS
(§1) For the fluorescence spectra, the excitation wavelength was set at 280 nm and the emission spectra were recorded in the range of 300 to 450 nm. Both excitation and emission slit widths were adjusted to 5 nm. […] Fluorescence emission spectra were then measured on a RF-5301 Spectrofluorophotometer (Shimadzu Scientific Instruments, Kyoto, Japan) at three different temperatures (288, 303, and 310 K). In order to calculate the peak area, the integration of spectra was done in the range of 300 to 450 nm. Synchronous fluorescence spectra were recorded by simultaneously scanning the excitation and emission monochromators, in which a constant wavelength interval was maintained between them. The wavelength interval (Δλ = λem − λex) was fixed individually at 60 nm, at which characteristic information of pertaining to Trp residues was obtained.

BSA [2] = target: T1, BSA; assay: Fluorescence resonance energy transfer (FRET) between BSA and bound agent; format: binding, bovine; settings: for r (distance from bound agent to Trp-213 residue of BSA): FRET; for R0 (critical distance at 50% energy transfer efficiency): K^2 = 2/3, N = 1.336, ф = 0.15
Method: Further, the distance R between the two Trp residues in BSA and the bound DPPCAH (DPPCAH-Cu) was determined using the fluorescence resonance energy transfer (FRET) method. Generally, FRET occurs whenever the emission spectrum of a fluorophore (donor) overlaps with the absorption spectrum of the bound molecule (acceptor). The efficiency of energy transfer could be used to evaluate the distance between the drug and the Trp213 residue in BSA. The relationship between the distance and efficiency of FRET is described by the following equation: (4) E=1−F/F0=R06/R06+r^6 where, r is the distance between acceptor and donor and, R0 is the critical distance when the energy transfer efficiency is 50%. The value of R0 is calculated using the following equation: (5) R=8.8×10^−25 K^2 N^−4ΦJ where, K^2 is the relative orientation of the transition dipoles of donor and acceptor (K^2 = 2/3 for a random orientation); N is the average refractive index of the medium (N = 1.336); ф is the fluorescence quantum yield of donor (ф = 0.15); J is a factor describing the spectral overlap between the emission spectrum of donor and the absorption spectrum of acceptor. J is calculated using the following equation: (6) J=∑F(λ)ε(λ)λ^4Δλ/∑F(λ)Δλ where, λ is wavelength. To calculate the distance (r), E and J value are required. These values are derived from the fluorescence data and overlapped area between the emission spectrum of BSA and the absorption spectrum of DPPCAH (or DPPCAH-Cu) as shown in Figure 6a (or Figure 6b) after normalization. The experimental value for the efficiency to be used in Equation (4) was estimated by measuring the fluorescence at equal protein-ligand concentration as described in [27].
Absorbance spectrum of DPPCAH and DPPCAH-Cu were recorded on a UV-2450 spectrophotometer (Shimadzu (Suzhou) Co. Ltd., Suzhou, China) within the UV region in the range of 300 to 450 nm. Final concentrations of the agents concentration used for measurements were 10 μM (in Tris-HCl buffer, pH 7.2).
For the fluorescence spectra, the excitation wavelength was set at 280 nm and the emission spectra were recorded in the range of 300 to 450 nm. Both excitation and emission slit widths were adjusted to 5 nm. In this assay, 4.0 mL of BSA solution at a fixed concentration of […] was accurately added into the quartz cell (1 cm path length), and was manually titrated by successive additions of 10 mM DPPCAH (or DPPCAH-Cu) at intervals of 5 min. Fluorescence emission spectra were then measured on a RF-5301 Spectrofluorophotometer (Shimadzu Scientific Instruments, Kyoto, Japan) at three different temperatures (288, 303, and 310 K). In order to calculate the peak area, the integration of spectra was done in the range of 300 to 450 nm. Synchronous fluorescence spectra were recorded by simultaneously scanning the excitation and emission monochromators, in which a constant wavelength interval was maintained between them. The wavelength interval (Δλ = λem − λex) was fixed individually at 60 nm, at which characteristic information of pertaining to Trp residues was obtained.

BSA [3] = target: T1, BSA; assay: Synchronous fluorescence spectra of BSA (Δλ = 60 nm); format: binding, bovine; settings: CBSA = 10.0 μM, 288 K
Method: The bathochromic (or […]) shift noticed during fluorescence titration of BSA with the reagents, implied potent changes in the environment of Trp residues. To confirm these environmental changes, synchronous fluorescence spectra were recorded, because this technique yields information pertaining to the change in the polarity of the microregion near fluorophore molecules. By using different D-value (Δλ) between the excitation and emission wavelength, fluorescence contributors from different aromatic amino acids in the protein can be identified. When Δλ is stabilized at 60 nm, synchronous fluorescence spectroscopy provides the characteristic information specific to Trp residues. […] Although DPPCAH and DPPCAH-Cu could bind BSA, they induced different effects in BSA.
as §1

BSA [4] = target: T1, BSA; assay: Circular dichroism spectra of BSA, secondary structure simulated with K2D2; parameters: species or system bovine; settings: molar ratio drug/protein = 2; CBSA = 15 μM; K2D2 simulation of CD data
Method: A direct calculation of secondary structures using experimental data was employed, but owing to the larger errors, the K2D2 software was used to simulate the experimental data of CD in the present study. The simulated curves are represented in the Supplementary Materials (Figure S1). In the absence of DPPCAH, the α-helix and β-sheet of BSA were 52% and 8.29% respectively.
BSA CD spectra in the range of 190–250 nm were recorded on a Chirascan (Applied Photophysics Ltd., Surrey, UK) with a 1.0 cm quartz cell in nitrogen atmosphere. BSA CD measurements in the presence and absence of DPPCAH (or DPPCAH-Cu) were performed with a scan rate of 50 nm/min. The A stock solution of 1.5 × 10^−5 M BSA was prepared in PBS. A 10 mM stock solution of DPPCAH was prepared in DMSO and the stock solution was diluted to 1.5 mM with water for measurements. Similarly, a solution of DPPCAH-Cu was prepared by mixing the DPPCAH solution with higher concentration of CuCl2 in water. The BSA concentration was held constant, while the DPPCAH concentration was varied (0, 1.5, 3.0 × 10^−5 M). The final concentration of DMSO in the measurements was less 0.5%. The buffer solution was chosen as the blank, and was manually subtracted from each spectrum during scanning. Each sample was scanned three times and the average was recorded for the CD spectrum.

HepG2 cells [5] = test system: HepG2 cells; parameters: method as in PMID 26398524; settings: cited from earlier work
HepG2 cells [6] = assay: MTT cytotoxicity assay in the absence or presence of BSA; format: cell-based; settings: agent-BSA 1:1, medium without FCS, 8 h incubation
Method: It has been reported that HSA could enhance the anti-proliferative activity of Dp44mT [13]. Thus, we examined the effect of BSA on both DPPCAH- and DPPCAH-Cu-mediated inhibition of HepG2 cells in which BSA was the main protein source in the cell culture.
Figure 1 Inhibition of proliferation of HepG2 cells by DPPCAH and DPPCAH-Cu in the absence or presence of BSA. Dpp = DPPCAH; * p < 0.01 (t-test).
A stock solution of DPPCAH (10 mM) was prepared in 80% DMSO, and was diluted to the required concentration with culture medium when used. The DPPCAH-Cu was prepared by mixing highly concentrated copper chloride with DPPCAH based on 1:1 molar ratio, and diluted to the required concentration with water. BSA was dissolved in PBS and was sterilized by filter sterilization method. HepG2 cells were cultured in RPMI-1640 medium supplemented with 10% fetal calf serum (FCS) and antibiotics. The cells collected in the exponential-phase (5 × 10^3 /mL) were seeded equivalently into a 96-well plate, followed by 6 h of incubation. […] The plate was read using a microplate reader (MK3; Thermo Fisher Scientific (Shanghai) Co. LTD, Shanghai, China) at 570 nm and the measurement of absorbance represented an estimate of the number of viable cells. Percent growth inhibition was defined as percent absorbance inhibition within appropriate absorbance in each cell line. […]

[7] = 303 K (first value of the printed decrease with increasing temperature)
[8] = 310 K (second value of the printed decrease with increasing temperature)

Row | Compound | number of binding sites n per BSA (BSA [1]; 288 K, CBSA = 10 μM) | Ksv (Stern-Volmer dynamic quenching constant) (BSA [1]; [7]) | Ksv (Stern-Volmer dynamic quenching constant) (BSA [1]; [8]) | Kq (quenching rate constant of biomolecule) (BSA [1]) | shift of BSA fluorescence emission upon addition of the agent (BSA [1]) | ΔH of binding to BSA (BSA [1]; 288 K) | ΔS of binding to BSA (BSA [1]; 288 K) | ΔG of binding to BSA (BSA [1]; 288 K) | r (distance from bound agent to Trp-213 residue of BSA) (BSA [2]) | R0 (critical distance at 50% energy transfer efficiency) (BSA [2]) | decrease of fluorescence intensity of Trp residue (BSA [3]) | shift of maximum emission wavelength of Trp in synchronous fluorescence (BSA [3]) | other results
1 | Copper complex of di-2-pyridylketone 2-pyridinecarboxylic acid hydrazone [DPPCAH-Cu] | 1.1053 | 5.47 × 10^4 | 4.9 × 10^4 | > 2e+10 L/mol/s | blue shift | -9.218 kcal/mol | −41.5 J/mol·K | -6.36 kcal/mol | 2.32 nm | 2.7 nm | 50% | blue shift | Ka (association constant with BSA) (BSA [1]; 288 K, CBSA = 10 μM, pH 7.2 (10 mM Tris-HCl)): 6.56 ×10^4; binding energy obtained from fluorescence quenching (BSA [1]; at 288 K, quoted for comparison with docking): -7.1 kcal/mol; R0 (critical distance at 50% energy transfer efficiency) (BSA [2]; listed as BSA-DPPCAH-Cu): 2.70 nm; J (spectral overlap of BSA emission and agent absorption) (BSA [2]; calculated from spectra): 1.7e-14 cm^3·L·mol^-1; decrease in α-helix of BSA (BSA [4]): 3.5%; increase in β-sheet of BSA (BSA [4]): 1.45%; antitumor activity compared with DPPCAH (HepG2 cells [5]): significantly enhanced the antitumor activity
2 | O=C(NN=C(c1ccccn1)c1ccccn1)c1ccccn1 [DPPCAH, di-2-pyridylketone-2-pyridine carboxylic acid hydrazone] | 1.0418 | 7.0 × 10^4 | 5.08 × 10^4 | 5 × 10^12~7 × 10^12 L·mol^−1·s^−1 | bathochromic red shift | -11.23 kcal/mol | −60.0 J/mol·K | -7.096 kcal/mol | 2.03 nm | 2.35 nm | 55% | significant red shift | effect of BSA on growth inhibition of HepG2 cells mediated by the agent (HepG2 cells [6]): attenuated the growth inhibition; IC50 (HepG2 cells [5]; read-out: IC50, growth inhibition of HepG2 cells): 4.6 ± 0.2 µM

Reference: article PMC6274005, “Interaction of Di-2-pyridylketone 2-pyridine Carboxylic Acid Hydrazone and Its Copper Complex with BSA: Effect on Antitumor Activity as Revealed by Spectroscopic Studies” (Molecules, 2016)
